Laboratory results from the kinase profiling compilation of Christmann-Franck et al. (2016).

Columns and labels:
Test in all cases: radiometric filter-binding kinase assay
[1] = tested on: AKT1 (human), P31749 [S473D]
BTK (human) = BTK (human) (UniProt Q06187)
CSNK2A1 (human) = CSNK2A1 (human) (UniProt P68400)
CaMK1 (human) = CaMK1 (human) (UniProt Q14012)
DAPK1 (human) = DAPK1 (human) (UniProt P53355)
DYRK1A (human) = DYRK1A (human) (UniProt Q13627)
DYRK2 (human) = DYRK2 (human) (UniProt Q92630)
DYRK3 (human) = DYRK3 (human) (UniProt O43781)
EEF2K (human) = EEF2K (human) (UniProt O00418)
Sequence of EEF2K (human) (O00418 whole entry, looked up): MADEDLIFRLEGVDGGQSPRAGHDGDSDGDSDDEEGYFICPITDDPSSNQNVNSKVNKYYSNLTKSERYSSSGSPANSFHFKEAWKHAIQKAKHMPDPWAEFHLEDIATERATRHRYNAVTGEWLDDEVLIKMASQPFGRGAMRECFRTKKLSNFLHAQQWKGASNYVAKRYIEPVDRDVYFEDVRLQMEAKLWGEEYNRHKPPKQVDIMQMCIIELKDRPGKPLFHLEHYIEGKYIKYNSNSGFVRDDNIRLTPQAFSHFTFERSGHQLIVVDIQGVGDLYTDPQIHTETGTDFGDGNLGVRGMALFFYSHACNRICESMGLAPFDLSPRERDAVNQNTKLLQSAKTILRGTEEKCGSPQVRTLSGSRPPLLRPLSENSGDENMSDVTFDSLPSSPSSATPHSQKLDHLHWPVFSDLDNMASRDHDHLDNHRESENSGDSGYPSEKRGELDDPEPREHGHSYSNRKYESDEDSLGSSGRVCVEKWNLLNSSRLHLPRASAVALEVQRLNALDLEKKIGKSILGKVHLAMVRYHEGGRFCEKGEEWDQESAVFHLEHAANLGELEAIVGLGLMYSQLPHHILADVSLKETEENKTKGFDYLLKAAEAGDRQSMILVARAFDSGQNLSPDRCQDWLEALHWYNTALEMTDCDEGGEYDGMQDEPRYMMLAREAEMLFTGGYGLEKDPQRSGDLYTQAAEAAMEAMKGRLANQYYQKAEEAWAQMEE

EPHA2 (human) = EPHA2 (human) (UniProt P29317)
EPHB1 (human) = EPHB1 (human) (UniProt P54762)
EPHB3 (human) = EPHB3 (human) (UniProt P54753)
ERBB4 (human) = ERBB4 (human) (UniProt Q15303)
HIPK1 (human) = HIPK1 (human) (UniProt Q86Z02)
HIPK2 (human) = HIPK2 (human) (UniProt Q9H2X6)
Sequence of HIPK2 (human) (Q9H2X6 whole entry, looked up): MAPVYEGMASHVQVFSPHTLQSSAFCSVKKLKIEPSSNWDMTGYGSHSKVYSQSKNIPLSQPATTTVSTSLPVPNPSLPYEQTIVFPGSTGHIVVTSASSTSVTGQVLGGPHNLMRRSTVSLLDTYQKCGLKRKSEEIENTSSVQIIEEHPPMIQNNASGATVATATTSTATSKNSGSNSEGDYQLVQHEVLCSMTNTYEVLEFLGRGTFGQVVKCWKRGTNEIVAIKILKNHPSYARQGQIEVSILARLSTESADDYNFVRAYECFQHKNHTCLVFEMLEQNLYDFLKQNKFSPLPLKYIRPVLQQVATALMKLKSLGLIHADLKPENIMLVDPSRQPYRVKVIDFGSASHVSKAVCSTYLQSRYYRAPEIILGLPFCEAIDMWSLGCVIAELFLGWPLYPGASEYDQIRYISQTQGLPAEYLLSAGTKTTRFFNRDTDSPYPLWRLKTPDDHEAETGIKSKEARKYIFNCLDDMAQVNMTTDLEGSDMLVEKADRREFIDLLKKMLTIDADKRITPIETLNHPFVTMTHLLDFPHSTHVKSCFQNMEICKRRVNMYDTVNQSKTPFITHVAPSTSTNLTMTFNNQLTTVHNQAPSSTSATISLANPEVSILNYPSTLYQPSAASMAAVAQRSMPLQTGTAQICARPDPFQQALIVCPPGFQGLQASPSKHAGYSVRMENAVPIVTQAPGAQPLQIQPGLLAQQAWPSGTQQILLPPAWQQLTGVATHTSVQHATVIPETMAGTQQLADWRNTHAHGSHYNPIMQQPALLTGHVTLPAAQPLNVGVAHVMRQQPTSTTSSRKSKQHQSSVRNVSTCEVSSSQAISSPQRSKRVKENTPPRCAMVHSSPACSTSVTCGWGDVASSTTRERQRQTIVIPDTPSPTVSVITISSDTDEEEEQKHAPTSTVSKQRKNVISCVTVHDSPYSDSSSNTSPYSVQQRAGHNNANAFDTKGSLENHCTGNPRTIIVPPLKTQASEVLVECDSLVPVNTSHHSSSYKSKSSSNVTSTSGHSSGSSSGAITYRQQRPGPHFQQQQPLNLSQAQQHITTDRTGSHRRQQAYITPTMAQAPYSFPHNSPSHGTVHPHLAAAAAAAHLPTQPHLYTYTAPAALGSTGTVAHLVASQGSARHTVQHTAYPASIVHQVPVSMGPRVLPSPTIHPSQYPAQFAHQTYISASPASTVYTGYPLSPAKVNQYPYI

HIPK3 (human) = HIPK3 (human) (UniProt Q9H422)
IKBKE (human) = IKBKE (human) (UniProt Q14164)
Sequence of IKBKE (human) (Q14164 whole entry, looked up): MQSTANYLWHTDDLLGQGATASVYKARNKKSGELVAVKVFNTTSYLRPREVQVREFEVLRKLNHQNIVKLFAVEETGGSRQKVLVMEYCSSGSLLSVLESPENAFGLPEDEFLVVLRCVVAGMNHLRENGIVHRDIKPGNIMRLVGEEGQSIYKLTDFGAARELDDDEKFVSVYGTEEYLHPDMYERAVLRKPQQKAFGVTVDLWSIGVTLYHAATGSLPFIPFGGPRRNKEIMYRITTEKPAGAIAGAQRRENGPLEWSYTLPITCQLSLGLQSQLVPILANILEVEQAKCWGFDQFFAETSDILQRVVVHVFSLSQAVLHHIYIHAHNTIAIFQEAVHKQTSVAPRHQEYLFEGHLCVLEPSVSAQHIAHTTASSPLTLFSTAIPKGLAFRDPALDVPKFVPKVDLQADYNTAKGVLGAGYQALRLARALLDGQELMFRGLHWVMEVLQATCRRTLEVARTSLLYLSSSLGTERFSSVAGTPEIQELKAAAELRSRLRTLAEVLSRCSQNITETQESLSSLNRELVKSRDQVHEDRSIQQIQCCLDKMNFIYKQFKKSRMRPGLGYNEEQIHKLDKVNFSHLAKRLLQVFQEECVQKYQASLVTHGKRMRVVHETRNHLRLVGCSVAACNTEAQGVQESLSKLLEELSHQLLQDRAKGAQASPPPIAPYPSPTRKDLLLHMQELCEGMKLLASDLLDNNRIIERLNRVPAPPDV

LCK (mouse) = conditions: accession and sequence are those of the human protein
MAP2K6 (human) = MAP2K6 (human) (UniProt P52564)
Sequence of MAP2K6 (human) (P52564 whole entry, looked up): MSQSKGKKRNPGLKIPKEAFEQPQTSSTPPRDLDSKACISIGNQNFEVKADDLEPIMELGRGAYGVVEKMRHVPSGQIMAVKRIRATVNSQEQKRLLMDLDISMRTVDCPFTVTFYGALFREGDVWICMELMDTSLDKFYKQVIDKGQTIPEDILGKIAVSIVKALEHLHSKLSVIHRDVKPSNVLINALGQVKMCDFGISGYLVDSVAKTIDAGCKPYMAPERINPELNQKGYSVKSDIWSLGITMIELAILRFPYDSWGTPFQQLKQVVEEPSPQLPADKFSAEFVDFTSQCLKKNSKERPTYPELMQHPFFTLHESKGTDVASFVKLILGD

MAP3K9 (human) = MAP3K9 (human) (UniProt P80192)
MAPK11 (human) = MAPK11 (human) (UniProt Q15759)
Sequence of MAPK11 (human) (Q15759 whole entry, looked up): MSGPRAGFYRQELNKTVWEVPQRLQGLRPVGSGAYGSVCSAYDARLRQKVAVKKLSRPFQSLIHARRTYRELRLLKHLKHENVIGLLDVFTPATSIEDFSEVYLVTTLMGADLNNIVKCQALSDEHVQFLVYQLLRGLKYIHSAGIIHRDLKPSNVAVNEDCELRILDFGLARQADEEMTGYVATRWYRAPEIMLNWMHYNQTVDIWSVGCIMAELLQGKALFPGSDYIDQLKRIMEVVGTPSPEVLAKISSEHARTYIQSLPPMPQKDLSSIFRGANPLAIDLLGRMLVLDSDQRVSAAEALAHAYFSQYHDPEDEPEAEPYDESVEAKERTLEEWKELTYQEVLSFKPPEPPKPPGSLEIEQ

MAPK13 (human) = MAPK13 (human) (UniProt O15264)
Sequence of MAPK13 (human) (O15264 whole entry, looked up): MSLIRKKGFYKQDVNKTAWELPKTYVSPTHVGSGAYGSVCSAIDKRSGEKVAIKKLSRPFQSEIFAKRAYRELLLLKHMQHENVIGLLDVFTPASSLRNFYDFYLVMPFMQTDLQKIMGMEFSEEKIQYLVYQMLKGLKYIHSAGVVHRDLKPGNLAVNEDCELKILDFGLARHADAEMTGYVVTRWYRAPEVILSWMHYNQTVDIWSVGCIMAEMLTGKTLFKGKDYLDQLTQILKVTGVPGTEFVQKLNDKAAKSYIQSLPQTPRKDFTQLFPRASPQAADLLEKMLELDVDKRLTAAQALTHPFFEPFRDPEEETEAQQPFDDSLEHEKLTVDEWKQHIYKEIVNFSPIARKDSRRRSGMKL

MAPK14 (human) = MAPK14 (human) (UniProt Q16539)
MAPKAPK5 (human) = MAPKAPK5 (human) (UniProt Q8IW41)
MARK1 (human) = MARK1 (human) (UniProt Q9P0L2)
MARK3 (human) = MARK3 (human) (UniProt P27448)
Sequence of MARK3 (human) (P27448 whole entry, looked up): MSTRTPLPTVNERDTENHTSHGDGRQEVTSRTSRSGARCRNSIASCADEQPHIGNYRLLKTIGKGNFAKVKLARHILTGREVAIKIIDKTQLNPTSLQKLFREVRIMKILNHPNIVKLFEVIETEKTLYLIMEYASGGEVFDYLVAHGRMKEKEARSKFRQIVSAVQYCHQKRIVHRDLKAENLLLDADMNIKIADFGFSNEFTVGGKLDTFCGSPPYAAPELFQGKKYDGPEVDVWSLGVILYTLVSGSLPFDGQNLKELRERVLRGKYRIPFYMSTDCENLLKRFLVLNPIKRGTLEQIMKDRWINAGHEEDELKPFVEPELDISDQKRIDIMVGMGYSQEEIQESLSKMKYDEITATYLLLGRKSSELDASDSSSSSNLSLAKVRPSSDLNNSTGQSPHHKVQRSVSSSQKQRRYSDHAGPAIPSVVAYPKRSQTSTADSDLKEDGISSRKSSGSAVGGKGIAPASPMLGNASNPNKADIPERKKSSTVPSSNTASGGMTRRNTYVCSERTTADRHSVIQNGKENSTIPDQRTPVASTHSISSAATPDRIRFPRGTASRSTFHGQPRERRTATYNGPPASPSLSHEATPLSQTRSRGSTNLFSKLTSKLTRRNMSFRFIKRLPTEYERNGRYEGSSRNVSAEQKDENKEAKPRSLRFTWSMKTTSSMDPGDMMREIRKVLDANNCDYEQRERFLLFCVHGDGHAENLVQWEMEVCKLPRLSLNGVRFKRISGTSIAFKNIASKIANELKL

MST4 (human) = MST4 (human) (UniProt Q9P289)
NEK6 (human) = NEK6 (human) (UniProt Q9HC98)
NUAK1 (human) = NUAK1 (human) (UniProt O60285)
PAK4 (human) = PAK4 (human) (UniProt O96013)
PAK6 (human) = PAK6 (human) (UniProt Q9NQU5)
PAK7 (human) = PAK7 (human) (UniProt Q9P286)
PRKCZ (human) = PRKCZ (human) (UniProt Q05513)
ROCK2 (rat) = conditions: accession and sequence are those of the human protein
RPS6KA5 KD1 KD2 (human) = RPS6KA5 KD1 KD2 (human) (UniProt O75582)
TAOK1 (human) = TAOK1 (human) (UniProt Q7L7X3)

Sequence of AKT1 (human), P31749 [S473D] (P31749 whole entry S473D, looked up): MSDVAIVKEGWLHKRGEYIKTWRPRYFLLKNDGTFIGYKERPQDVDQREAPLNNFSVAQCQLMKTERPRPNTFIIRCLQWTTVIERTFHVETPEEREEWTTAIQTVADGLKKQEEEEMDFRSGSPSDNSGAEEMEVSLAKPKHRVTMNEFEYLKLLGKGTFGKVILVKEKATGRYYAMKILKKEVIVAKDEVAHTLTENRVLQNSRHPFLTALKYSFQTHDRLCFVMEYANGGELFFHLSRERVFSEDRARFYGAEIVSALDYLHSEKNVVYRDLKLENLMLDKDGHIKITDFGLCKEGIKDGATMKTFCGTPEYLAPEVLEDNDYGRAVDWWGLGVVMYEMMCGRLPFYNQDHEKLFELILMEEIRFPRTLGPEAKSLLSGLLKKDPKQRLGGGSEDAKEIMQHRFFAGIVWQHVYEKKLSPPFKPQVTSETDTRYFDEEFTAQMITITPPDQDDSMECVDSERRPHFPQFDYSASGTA

## NC1(c2ccc(-c3nc4ccn5c(=O)[nH]nc5c4cc3-c3ccccc3)cc2)CCC1
[1]; compound 0.1 µM
  residual activity: 103%
[1]; compound 1.0 µM
  residual activity: 96%
[1]; compound 10.0 µM
  residual activity: 75%
BTK (human); compound 0.1 µM
  residual activity: 87%
BTK (human); compound 1.0 µM
  residual activity: 96%
BTK (human); compound 10.0 µM
  residual activity: 99%
CSNK2A1 (human); compound 0.1 µM
  residual activity: 104%
CSNK2A1 (human); compound 10.0 µM
  residual activity: 84%
CaMK1 (human); compound 0.1 µM
  residual activity: 108%
CaMK1 (human); compound 1.0 µM
  residual activity: 87%
CaMK1 (human); compound 10.0 µM
  residual activity: 35%
DAPK1 (human); compound 0.1 µM
  residual activity: 85%
DAPK1 (human); compound 1.0 µM
  residual activity: 90%
DAPK1 (human); compound 10.0 µM
  residual activity: 48%
DYRK1A (human); compound 0.1 µM
  residual activity: 95%
DYRK1A (human); compound 1.0 µM
  residual activity: 88%
DYRK1A (human); compound 10.0 µM
  residual activity: 57%
DYRK2 (human); compound 0.1 µM
  residual activity: 96%
DYRK2 (human); compound 1.0 µM
  residual activity: 96%
DYRK2 (human); compound 10.0 µM
  residual activity: 87%
DYRK3 (human); compound 0.1 µM
  residual activity: 98%
DYRK3 (human); compound 1.0 µM
  residual activity: 89%
DYRK3 (human); compound 10.0 µM
  residual activity: 81%
EEF2K (human); compound 0.1 µM
  residual activity: 101%
EEF2K (human); compound 1.0 µM
  residual activity: 104%
EEF2K (human); compound 10.0 µM
  residual activity: 109%
EPHA2 (human); compound 0.1 µM
  residual activity: 86%
EPHA2 (human); compound 1.0 µM
  residual activity: 95%
EPHA2 (human); compound 10.0 µM
  residual activity: 87%
EPHB1 (human); compound 0.1 µM
  residual activity: 96%
EPHB1 (human); compound 1.0 µM
  residual activity: 109%
EPHB1 (human); compound 10.0 µM
  residual activity: 100%
EPHB3 (human); compound 0.1 µM
  residual activity: 112%
EPHB3 (human); compound 1.0 µM
  residual activity: 99%
EPHB3 (human); compound 10.0 µM
  residual activity: 105%
ERBB4 (human); compound 0.1 µM
  residual activity: 111%
ERBB4 (human); compound 1.0 µM
  residual activity: 95%
HIPK1 (human); compound 0.1 µM
  residual activity: 91%
HIPK1 (human); compound 1.0 µM
  residual activity: 85%
HIPK1 (human); compound 10.0 µM
  residual activity: 97%
HIPK2 (human); compound 0.1 µM
  residual activity: 102%
HIPK2 (human); compound 1.0 µM
  residual activity: 97%
HIPK2 (human); compound 10.0 µM
  residual activity: 80%
HIPK3 (human); compound 0.1 µM
  residual activity: 117%
HIPK3 (human); compound 1.0 µM
  residual activity: 100%
HIPK3 (human); compound 10.0 µM
  residual activity: 100%
IKBKE (human); compound 0.1 µM
  residual activity: 88%
IKBKE (human); compound 1.0 µM
  residual activity: 90%
IKBKE (human); compound 10.0 µM
  residual activity: 91%
LCK (mouse); compound 0.1 µM
  residual activity: 106%
LCK (mouse); compound 1.0 µM
  residual activity: 112%
LCK (mouse); compound 10.0 µM
  residual activity: 80%
MAP2K6 (human); compound 0.1 µM
  residual activity: 109%
MAP2K6 (human); compound 1.0 µM
  residual activity: 98%
MAP2K6 (human); compound 10.0 µM
  residual activity: 104%
MAP3K9 (human); compound 0.1 µM
  residual activity: 110%
MAP3K9 (human); compound 1.0 µM
  residual activity: 93%
MAPK11 (human); compound 0.1 µM
  residual activity: 99%
MAPK11 (human); compound 1.0 µM
  residual activity: 77%
MAPK11 (human); compound 10.0 µM
  residual activity: 76%
MAPK13 (human); compound 0.1 µM
  residual activity: 100%
MAPK13 (human); compound 1.0 µM
  residual activity: 90%
MAPK13 (human); compound 10.0 µM
  residual activity: 106%
MAPK14 (human); compound 0.1 µM
  residual activity: 110%
MAPK14 (human); compound 1.0 µM
  residual activity: 97%
MAPK14 (human); compound 10.0 µM
  residual activity: 101%
MAPKAPK5 (human); compound 0.1 µM
  residual activity: 81%
MAPKAPK5 (human); compound 10.0 µM
  residual activity: 102%
MARK1 (human); compound 0.1 µM
  residual activity: 113%
MARK1 (human); compound 1.0 µM
  residual activity: 88%
MARK1 (human); compound 10.0 µM
  residual activity: 98%
MARK3 (human); compound 0.1 µM
  residual activity: 85%
MARK3 (human); compound 1.0 µM
  residual activity: 99%
MARK3 (human); compound 10.0 µM
  residual activity: 91%
MST4 (human); compound 0.1 µM
  residual activity: 95%
MST4 (human); compound 1.0 µM
  residual activity: 103%
MST4 (human); compound 10.0 µM
  residual activity: 105%
NEK6 (human); compound 0.1 µM
  residual activity: 106%
NEK6 (human); compound 1.0 µM
  residual activity: 98%
NEK6 (human); compound 10.0 µM
  residual activity: 90%
NUAK1 (human); compound 0.1 µM
  residual activity: 101%
NUAK1 (human); compound 1.0 µM
  residual activity: 102%
PAK4 (human); compound 0.1 µM
  residual activity: 75%
PAK4 (human); compound 1.0 µM
  residual activity: 78%
PAK4 (human); compound 10.0 µM
  residual activity: 66%
PAK6 (human); compound 0.1 µM
  residual activity: 85%
PAK6 (human); compound 1.0 µM
  residual activity: 100%
PAK6 (human); compound 10.0 µM
  residual activity: 91%
PAK7 (human); compound 0.1 µM
  residual activity: 101%
PAK7 (human); compound 1.0 µM
  residual activity: 96%
PAK7 (human); compound 10.0 µM
  residual activity: 75%
PRKCZ (human); compound 0.1 µM
  residual activity: 97%
PRKCZ (human); compound 1.0 µM
  residual activity: 105%
PRKCZ (human); compound 10.0 µM
  residual activity: 97%
ROCK2 (rat); compound 0.1 µM
  residual activity: 85%
ROCK2 (rat); compound 1.0 µM
  residual activity: 87%
ROCK2 (rat); compound 10.0 µM
  residual activity: 91%
RPS6KA5 KD1 KD2 (human); compound 0.1 µM
  residual activity: 84%
RPS6KA5 KD1 KD2 (human); compound 1.0 µM
  residual activity: 90%
RPS6KA5 KD1 KD2 (human); compound 10.0 µM
  residual activity: 76%
TAOK1 (human); compound 0.1 µM
  residual activity: 104%
TAOK1 (human); compound 1.0 µM
  residual activity: 90%
TAOK1 (human); compound 10.0 µM
  residual activity: 85%
